Data taken from patent US6521623B1, “N,N'-disubstituted benzimidazolone derivatives with affinity at the serotonin and dopamine receptors” (Boehringer Ingelheim Pharma KG, priority 2000, dated 2003).

Experiments:
5-HT2A [1] = target: T1, 5-HT2A (Rattus norvegicus, UniProt P14842); test: 5-HT2A Radioligand Receptor Binding Assay ([3H]-Ketanserin, cerebral frontal cortex membranes); details: 0.5 nM [3H]-Ketanserin
T1 construct: Cerebral frontal cortex was homogenized in 10 volumes of ice cold 0.32 M sucrose; from tissue; host or cells: rat cerebral frontal cortex membranes
Procedure: 5-HT2A Radioligand Receptor Binding Assay
Rats (male Sprague-Dawley, 200-250 g) were used. Cerebral frontal cortex was homogenized in 10 volumes of ice cold 0.32 M sucrose in 5 mM Tris-HCl ([…]) buffer. After centrifugation of the homogenate (1,000×g for 10 minutes) the supernatant was then recentrifuged at 48,000×g for 15 minutes. The resulting pellet was gently homogenized in an equal volume of 50 mM Tris-HCl buffer (pH 7.4) and incubated at 37° C. for 10 minutes. Membranes were then collected by centrifugation as above described and finally resuspended in 10 volumes of 50 mM Tris-HCl buffer (pH 7.4).
For displacement experiments membranes (980 μl) were diluted in 50 mM Tris-HCl buffer (pH 7.4) to a final concentration of 1:100 (w/v); the tissue suspension was then incubated at 37° C. for 10 minutes in a final volume of 1 ml in the presence of 0.5 nM [^3H]-Ketanserin. Non-specific binding was determined by incubating similar samples with unlabelled methysergide (100 μM). After incubation, samples prepared in a 24 wells cell culture cluster (Costar) were rapidly filtered by Inotech Cell Harvester (IH 201 filters). The filters were washed three times with 2 ml ice-cold Tris-HCl buffer and placed in polyethylene vials, then 4 ml of Filter Count scintillation cocktail (Packard) were added. The radioactivity present was counted by liquid scintillation spectrometry.
The affinity values (IC50) for the compounds were obtained by a nonlinear least squares regression analysis on the basis of a one binding site model.

5-HT2A [2] = target: 5-HT2A (Mus musculus, UniProt P35363); test: 5-HT2 Functional Assay (PI Turnover) in cerebral cortex miniprisms; format: biochemical; details: 10 μM compound, inhibition of PI turnover accumulation induced by 100 μM 5-HT
Procedure: 5-H T2 Functional Assay (PI Turnover)
Cross-chopped miniprisms (350×350 μm) were prepared from mouse whole cerebral cortices and incubated for 60 minutes at 37° C. in Krebs-Henseleit buffer containing 2 g/l glucose.
Cerebral cortex miniprisms were distributed in vials and incubated for 30 minutes with approximately 170 nM [^3H]-myoinositol (10-20 Ci/mmol) and […] lithium chloride. Samples were divided in different groups in triplicate: control, 100 μM 5-HT, 10 and 30 μM flibanserin+100 μM 5-HT, as standards, and 10 μM of the different compound under investigation+100 μM 5-HT. When 5-HT was added the incubation continued for 45 minutes. Compounds under investigation and flibanserin were added 10 minutes before dispensing 5-HT. Incubation was terminated by the addition of 940 μl chloroform-methanol (1:2 v/v). Further aliquots of chloroform (310 μl) and water (310 μl) were added and labeled inositol phosphates (1 Ps) were extracted from the aqueous phase by ion exchange chromatography using Dowex resin in the formate form. After addition of 10 ml of PicoFluor 40 scintillation cocktail (Packard), the radioactivity present in an aliquot (400 μl) of the aqueous extract was counted by liquid scintillation spectrometry.

5-HT1A [3] = target: T2, 5-HT1A (Homo sapiens, UniProt P08908); test: 5HT1A Radioligand Receptor Binding Assay ([3H]-8-OH-DPAT, CHO cell membranes); parameters: expressed in transfected cells; host or cells: CHO cells; details: [3H]-8-OH-DPAT; CHO membranes, human 5-HT1A; read-out: 5-HT1A Receptor Binding IC50
T2 sequence (P08908 1-422): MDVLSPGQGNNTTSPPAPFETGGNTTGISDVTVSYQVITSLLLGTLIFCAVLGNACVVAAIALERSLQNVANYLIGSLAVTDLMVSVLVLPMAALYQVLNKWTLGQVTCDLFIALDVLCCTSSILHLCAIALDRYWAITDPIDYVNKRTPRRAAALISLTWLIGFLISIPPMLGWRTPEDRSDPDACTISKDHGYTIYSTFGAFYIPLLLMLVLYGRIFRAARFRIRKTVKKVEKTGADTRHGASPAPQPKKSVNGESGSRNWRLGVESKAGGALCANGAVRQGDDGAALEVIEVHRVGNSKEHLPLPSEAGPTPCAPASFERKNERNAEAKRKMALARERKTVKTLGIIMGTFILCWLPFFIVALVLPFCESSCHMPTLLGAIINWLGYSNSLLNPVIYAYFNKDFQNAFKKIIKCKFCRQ
Method in brief: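 CHO-cell membranes expressing human 5-HT1A incubated with [3H]-8-OH-DPAT (0.6-0.7 nM) for 60 minutes at 27° C, filtered and scintillation counted; non-specific binding defined with 10^−5 M 5-HT. Compounds tested singly at 10^−7 M as % of control specific binding; IC50 from one-site nonlinear regression.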

5-HT1A [4] = target: T2, 5-HT1A; test: 5-HT1 Functional Assay (cAMP) in CHO/5-HT1A cells; format: cell-based; parameters: expressed in transfected cells; host or cells: CHO/5-HT1A cells
Procedure: 5-HT1 Functional Assay (cAMP)
CHO/5-HT1A cells were random seeded at a density of about 200,000/well in 24 well plates the day prior to the experiment. On the day of the experiment, cells were pretreated for 15 minutes at 37° C. with 500 μM isobutylmethylxantine (IBMX) dissolved in culture medium without serum. Wells were then divided in different groups in duplicate as follows: control, 10 μM FSK, 10 μM FSK+1 μM 5-HT as positive standard and 10 μM FSK+10 μM of the different compound under evaluation. Sample solutions were added and incubated for additional 15 minutes at 37° C. After incubation, the medium was aspirated and the reaction stopped by adding 200 μl of lysis buffer. Plates were shaken for 5 minutes, then the lysate was removed and samples were stored at 4° C. until the day of the assay. For the cAMP evaluation, samples were properly diluted and the cAMP content was measured by an enzyme immunoassay system.

Chain of 5-HT2A (Mus musculus, UniProt P35363) (P35363 whole entry, looked up): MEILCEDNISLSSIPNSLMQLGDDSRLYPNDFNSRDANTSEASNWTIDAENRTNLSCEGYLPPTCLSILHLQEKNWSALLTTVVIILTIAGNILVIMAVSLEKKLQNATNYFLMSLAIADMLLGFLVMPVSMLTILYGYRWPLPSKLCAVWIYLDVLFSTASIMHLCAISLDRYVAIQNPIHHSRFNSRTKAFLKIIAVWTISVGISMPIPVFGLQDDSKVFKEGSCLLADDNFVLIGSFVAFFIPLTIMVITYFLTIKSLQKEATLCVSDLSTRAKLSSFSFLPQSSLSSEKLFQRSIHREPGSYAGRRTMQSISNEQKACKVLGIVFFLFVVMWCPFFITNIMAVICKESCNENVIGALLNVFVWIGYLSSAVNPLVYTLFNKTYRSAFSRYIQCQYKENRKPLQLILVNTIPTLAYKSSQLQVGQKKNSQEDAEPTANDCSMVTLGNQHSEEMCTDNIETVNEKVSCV
T1 sequence (P14842 whole entry): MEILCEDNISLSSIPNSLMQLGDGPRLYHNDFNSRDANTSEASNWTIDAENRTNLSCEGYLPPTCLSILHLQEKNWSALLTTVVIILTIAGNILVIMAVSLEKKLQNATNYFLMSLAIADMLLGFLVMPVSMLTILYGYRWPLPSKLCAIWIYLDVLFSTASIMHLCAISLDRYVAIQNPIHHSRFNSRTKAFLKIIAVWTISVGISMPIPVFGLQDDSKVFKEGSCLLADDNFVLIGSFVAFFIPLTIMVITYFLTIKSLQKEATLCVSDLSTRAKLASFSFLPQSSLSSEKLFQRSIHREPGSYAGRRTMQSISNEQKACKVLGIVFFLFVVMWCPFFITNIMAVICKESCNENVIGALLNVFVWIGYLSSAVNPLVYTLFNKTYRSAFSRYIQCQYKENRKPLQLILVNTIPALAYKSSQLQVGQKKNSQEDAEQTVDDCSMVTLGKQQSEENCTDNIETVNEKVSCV

Row | Structure (SMILES) | IC50 (5-HT2A [1]) [nM] | 5-HT2A PI Turnover % inhibition (5-HT2A [2]) [%] | IC50 (5-HT1A [3]) [nM] | inhibition at 10 µM (5-HT1A [4]) [%]
1 | Cc1cccc(N2CCN(C/C=C\Cn3c(=O)n(CCNS(C)(=O)=O)c4ccccc43)CC2)c1 [Compound 514] | 74 | 41 | 7.9 | 67
2 | CS(=O)(=O)NCCn1c(=O)n(C/C=C/CN2CCN(c3cccc(Cl)c3)CC2)c2ccccc21 [Compound 521] | 30 | 48 | 0.61 | 67
